Results published in publication PMC9067978, “Design, synthesis, and molecular docking studies of novel pomalidomide-based PROTACs as potential anti-cancer agents targeting EGFR^WT and EGFR^T790M” (Journal of Enzyme Inhibition and Medicinal Chemistry, 2022).
“Also recorded” adds a separate entry of the source.

Legend:
EGFR^WT = biological target: T1, EGFR^WT (Homo sapiens, UniProt P00533); assay: EGFR^WT kinase inhibitory assay (HTRF); type: biochemical; conditions: ATP 1.65 µM, mean ± S.D of three experiments
T1 construct: purchased Sigma
Procedure: This test used HTRF[44] assay with EGFR^WT and EGFR^T790M (Sigma). For the first 5 minutes, the evaluated compounds were incubated with EGFR^WT and/or EGFR^T790M and their substrates in the enzymatic buffer. […] The assay was performed at 37 °C for 30 minutes. The addition of EDTA-containing detection reagents halted the process. After one hour detection period, GraphPad Prism 5.0 was used to calculate the IC50 values. For each concentration, three separate trials were carried out.

Akt phosphorylation = assay: Western blotting, Akt phosphorylation in A549 cells; type: cell-based, human; conditions: A549 cells, 0.1, 0.3 and 1 µM, erlotinib for comparison
Procedure: At a concentration of 100 nM, the time-dependent degradation activities of compounds 15–21 were also examined (Figure 5(A)).
Figure 5. (A) EGFR time-dependent degradation by compound 16 in A549 cell lines. Cells were treated with100 nM of 15–21 for indicated time points. Western blotting was used to evaluate EGFR protein, and densitometry was used to measure EGFR degradation, which was adjusted to the density of β-actin protein (n ¼2). (B) Compounds 15 and 16 have EGFR degradation and phosphorylation inhibitory action in A549 cells. The cells were exposed to concentrations of 0.1, 0.3, and 1 µM. Erlotinib were utilised for comparison. […]
Cells were seeded in 6-well plates at 1 × 10^6 per well, incubated at 37 °C with 5% CO2 for 24 h before drug exposure. […] The results were detected by an enhanced chemiluminescence system (Mill-pore). […]

MCF-7 [1] = assay: DNA-flow cytometric cell cycle analysis, MCF-7; type: cell-based, human; conditions: 3.92 µM, 24 hours
Procedure: (§1) Then, the influence of compound 16 on the cell cycle profile was then investigated.
(§2) The cells that had been tested were then trypsinized and washed in sterilised phosphate buffer saline (PBS). The collected cells were fixed with cold ethanol (100%, 1.5 ml). According to the manufacturer’s instructions, a Cycle TESTTM PLUS DNA Reagent Kit was used to dye the cells (BD Biosciences, San Jose, CA). A flow cytometer was used to assess cell-cycle distribution.[52]

HepG-2 [2] = assay: DNA-flow cytometric cell cycle analysis, HepG-2; type: cell-based, human; conditions: 3.02 µM, 24 hours
Procedure: as §1, §2

HCT-116 [3] = assay: DNA-flow cytometric cell cycle analysis, HCT-116; type: cell-based, human; conditions: 3.32 µM, 24 hours
Procedure: as §1, §2

MCF-7 [4] = assay: Annexin V/propidium iodide apoptosis assay, MCF-7; type: cell-based, human; conditions: 3.92 µM, 24 hours
Procedure: (§3) The double staining Annexin V/propidium iodide technique was performed to assess the mechanism of cell death and apoptosis-inducing activity.[46] […] As shown in (Figure 7 (A and B).
(§4) The negative control was chosen to be DMSO. The cells were then collected and washed twice in PBS. The cells were separated using centrifugation. An apoptosis detection kit (BD Biosciences, SanJose, CA) was used in this investigation. Following the manufacturer’s instructions, the cells were dyed with Annexin V-FITC and propidium iodide (PI) in the binding buffer for 20 minutes at 37 °C in the darkness. A flow cytometer was used to assess the binding of Annexin V-FITC and PI. The frequencies in all quadrants were investigated using the Flowjo program.[53]

HepG-2 [5] = assay: Annexin V/propidium iodide apoptosis assay, HepG-2; type: cell-based, human; conditions: 3.02 µM, 24 hours
Procedure: as §3, §4

HCT-116 [6] = assay: Annexin V/propidium iodide apoptosis assay, HCT-116; type: cell-based, human; conditions: 3.32 µM, 24 hours
Procedure: as §3, §4

caspase-3 = assay: Caspase-3 determination (ELISA) in HepG-2 cells; type: cell-based, human; conditions: HepG-2, 3.02 µM, 24 hours
Procedure: Caspase-3 activation was measured using a Caspase-3 ELISA Kit (KHO1091).

MCF-7 [7] = assay: MTT anti-proliferative assay, MCF-7
Procedure: (§5) The anti-proliferative activity was quantified in the following way. At a density of 3–8 × 10^3 cells per well, human cancer cell lines were introduced to 96-well plates. The wells were then incubated at 37 °C for 12 hours in 5% CO2 incubator. To determine the DMSO content, the culture media was swapped with 0.1 ml of fresh medium containing graded amounts of the test compounds for each well. Incubation time for the wells was two days. The cells were then cultured in 100 µl MTT solution (5 µg ml^−1) for another 4 hours in each well.
(§6) The absorbance of each well was measured at 490 nm with an automated ELISA reader system (TECAN, CHE) after MTT-formazan crystals were dissolved in 100 µl of DMSO. The IC50 values were calculated using nonlinear regression fitting models (Graph Pad, Prism Version 5). The results were expressed as means ± SD and were based on the average of three separate, duplicate trials.

HCT-116 [8] = assay: MTT anti-proliferative assay, HCT-116
Procedure: as §5, §6

[9] = ratio of cytotoxic IC50 to erlotinib

T1 sequence (P00533 25-1210): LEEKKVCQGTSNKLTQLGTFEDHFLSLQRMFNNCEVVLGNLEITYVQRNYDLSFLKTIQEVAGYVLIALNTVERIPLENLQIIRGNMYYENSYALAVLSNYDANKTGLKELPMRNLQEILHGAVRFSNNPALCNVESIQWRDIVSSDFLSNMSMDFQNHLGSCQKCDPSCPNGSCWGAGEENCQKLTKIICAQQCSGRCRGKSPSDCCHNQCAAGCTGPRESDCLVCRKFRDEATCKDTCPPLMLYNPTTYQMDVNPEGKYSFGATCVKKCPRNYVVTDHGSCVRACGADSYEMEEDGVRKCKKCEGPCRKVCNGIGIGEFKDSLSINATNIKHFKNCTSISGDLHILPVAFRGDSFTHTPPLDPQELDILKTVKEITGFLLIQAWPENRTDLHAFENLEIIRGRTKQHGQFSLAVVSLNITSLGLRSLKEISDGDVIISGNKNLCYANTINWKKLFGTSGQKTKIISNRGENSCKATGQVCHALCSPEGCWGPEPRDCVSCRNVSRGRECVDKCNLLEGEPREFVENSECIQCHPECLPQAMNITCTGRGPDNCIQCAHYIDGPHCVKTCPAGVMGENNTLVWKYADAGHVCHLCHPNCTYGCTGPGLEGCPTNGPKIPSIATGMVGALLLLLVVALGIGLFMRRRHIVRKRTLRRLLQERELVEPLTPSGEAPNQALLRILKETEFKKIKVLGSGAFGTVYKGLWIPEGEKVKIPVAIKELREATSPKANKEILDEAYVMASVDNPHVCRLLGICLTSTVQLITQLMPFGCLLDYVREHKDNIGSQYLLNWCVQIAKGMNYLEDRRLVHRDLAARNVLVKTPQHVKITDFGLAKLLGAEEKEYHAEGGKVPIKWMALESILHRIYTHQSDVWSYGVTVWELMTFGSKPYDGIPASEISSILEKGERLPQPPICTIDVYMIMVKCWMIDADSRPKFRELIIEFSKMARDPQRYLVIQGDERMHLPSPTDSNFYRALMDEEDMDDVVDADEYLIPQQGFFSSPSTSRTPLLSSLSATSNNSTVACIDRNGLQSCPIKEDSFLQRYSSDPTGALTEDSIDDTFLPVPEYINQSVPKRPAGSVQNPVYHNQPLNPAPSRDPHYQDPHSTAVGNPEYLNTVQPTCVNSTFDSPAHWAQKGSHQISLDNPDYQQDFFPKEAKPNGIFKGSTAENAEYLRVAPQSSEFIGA

IC50 (EGFR^WT): 0.1 ± 0.03 µM
IC50 (MCF-7 [7]; Homo sapiens, MCF7, read-out: IC50 MCF-7): 3.92 ± 0.19 µM
IC50 (HCT-116 [8]; Homo sapiens, HCT-116, read-out: IC50 HCT-116): 3.32 ± 0.15 µM
Compound: Cn1c(=O)c(C(=O)NNCCOCCOCC(=O)Nc2cccc3c2C(=O)N(C2CCC(=O)NC2=O)C3=O)nc2ccccc21 (stereo not shown) [Compound 16, N-(2-(2,6-dioxopiperidin-3-yl)-1,3-dioxoisoindolin-4-yl)-2-(2-(2-(2-(4-methyl-3-oxo-3,4-dihydroquinoxaline-2-carbonyl) hydrazinyl)ethoxy)ethoxy) acetamide]
inhibition of Akt phosphorylation, in words (Akt phosphorylation): effectively displayed inhibitory activity; also recorded: comparable to erlotinib
fold increase of cells in G2-M phase vs control, MCF-7 (MCF-7 [1]): 1.53 fold
fold increase of cells in pre-G1 phase vs control, MCF-7 (MCF-7 [1]): 4.39 fold
fold increase of cells in G2-M phase vs control, HepG-2 (HepG-2 [2]): 1.61 fold
fold increase of cells in pre-G1 phase vs control, HepG-2 (HepG-2 [2]): 6.76 fold
fold increase of cells in G2-M phase vs control, HCT-116 (HCT-116 [3]): 1.49 fold
fold increase of cells in pre-G1 phase vs control, HCT-116 (HCT-116 [3]): 5.37 fold
cellular apoptosis, early and late, times vs control, MCF-7 (MCF-7 [4]): ~9 times
early apoptosis ratio, MCF-7 (MCF-7 [4]): 4.18%
late apoptosis ratio, MCF-7 (MCF-7 [4]): 5.07%
cellular apoptosis, early and late, folds vs control, HepG-2 (HepG-2 [5]): ~13 folds
early apoptosis ratio, HepG-2 (HepG-2 [5]): 7.55%
late apoptosis ratio, HepG-2 (HepG-2 [5]): 5.53%
cellular apoptosis, early and late, times vs control, HCT-116 (HCT-116 [6]): ~9 times
early apoptosis ratio, HCT-116 (HCT-116 [6]): 5.96%
late apoptosis ratio, HCT-116 (HCT-116 [6]): 5.15%
increase of caspase-3 level vs control cells (caspase-3): 6.31 fold
folds more active than erlotinib, MCF-7 (MCF-7 [7]; [9]): 5.55 folds
folds more active than erlotinib, HCT-116 (HCT-116 [8]; [9]): 5.04 folds
